{"source": "patent US12616706B2", "about": "“Compositions and methods of use comprising substances with neural plasticity actions administered at non-psychedelic/psychotomimetic dosages and formulations” (Arbormentis LLC, priority 2019, dated 2026)", "key": {"IMR-90": {"system": "IMR-90", "assay": "Beta Gal assay, UVB induced senescence", "type": "cell-based", "from_the_text": "Seeding occurred on Day 1, with pretreatment on Day 2, and UVB-induction and retreatment on Day 3, SABG on Day 8, and microscopy (SABG) on Day 9. […] Results for Example 6 can be seen in FIGS. 19A-27D, and Tables 4, 5, and 6 below."}, "5-HT2A receptors": {"biological_target": "5-HT2A receptors (Homo sapiens, UniProt P28223)", "sequence (P28223 whole entry)": "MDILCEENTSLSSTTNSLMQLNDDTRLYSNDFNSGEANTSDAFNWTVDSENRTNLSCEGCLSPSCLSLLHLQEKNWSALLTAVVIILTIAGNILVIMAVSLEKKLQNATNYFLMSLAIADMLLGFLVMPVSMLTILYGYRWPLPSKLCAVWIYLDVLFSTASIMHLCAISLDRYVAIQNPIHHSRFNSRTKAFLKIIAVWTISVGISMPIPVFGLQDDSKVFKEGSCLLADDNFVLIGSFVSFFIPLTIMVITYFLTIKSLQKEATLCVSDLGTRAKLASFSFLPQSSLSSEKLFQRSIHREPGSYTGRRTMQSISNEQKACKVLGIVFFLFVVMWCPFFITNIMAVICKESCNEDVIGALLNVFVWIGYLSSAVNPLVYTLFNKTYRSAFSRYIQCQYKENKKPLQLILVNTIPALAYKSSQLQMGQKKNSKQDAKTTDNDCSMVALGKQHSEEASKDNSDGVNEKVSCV", "settings": "Rickli et al., 2017; cited from earlier work"}, "[1]": {"settings": "cited from earlier work"}, "BDNF": {"system": "BDNF", "settings": "only the lower dose, 25 mg daily, 14-day period; cited from earlier work"}, "IL-12": {"system": "IL-12", "assay": "IL-12 expression in keratocytes exposed to CM of activated U937 (qPCR)", "type": "cell-based, human", "settings": "0.1 and 1 μM psilocin, 4 and 10 h", "description": "(§1) Anti-inflammatory and anti-fibrotic effects evaluations. Cytokines expression was analyzed in human keratocytes and HCE cells exposed to the inflammatory conditioned medium (CM) of activated U937 cells.\n(§2) U937 human monocytes were differentiated to macrophages by treatment with 50 ng/mL phorbol myristate acetate (PMA) for 48 h followed by the exposure to […] lipopolysaccharide (LPS) for 1 hour. Cells were then washed and cultivated with complete RPMI for 24 hours to produce the inflammatory CM. The CM was collected, filtered and stored at −80° C. The differentiation of monocytes to macrophages was examined under an inverted phase-contrast microscope and the mRNA expression of the macrophage differentiation marker CD68 was analysed by quantitative real time PCR (qPCR). Cells were then washed and cultivated with complete DMEM for 24 hours to produce the CM. The CM was collected, filtered and stored at −80° C.\n(§3) At 4 and 10 or at 4, 10 and 24 h cells were detached […] extracted to analyze the expression of pro-inflammatory cytokines (IL-1β, TNF-α, IL-8, IL-12, IFNγ). The expression of type collagen I and VEGF was analysed on mRNA extracted from keratocyte cell cultures. The experiments were performed three times."}, "IL-8 [2]": {"system": "IL-8", "assay": "IL-8 expression in keratocytes exposed to CM of activated U937 (qPCR)", "type": "cell-based, human", "settings": "0.1 and 1 μM psilocin, 4 and 10 h", "description": "as §1, §2, §3"}, "TNF-α": {"system": "TNF-α", "assay": "TNF-α expression in keratocytes exposed to CM of activated U937 (qPCR)", "type": "cell-based, human", "settings": "0.1 and 1 μM psilocin", "description": "as §1, §2, §3"}, "[3]": {"settings": "after ingestion of psilocybin mushrooms; cited from earlier work"}, "IL-8 [4]": {"system": "IL-8", "assay": "IL-8 expression in HCE cells exposed to CM of activated U937 (qPCR)", "type": "cell-based, human", "settings": "0.1 and 1 μM psilocin, 10 h", "description": "as §1, §2, §3"}, "VEGF": {"system": "VEGF", "assay": "VEGF expression in keratocytes exposed to CM of activated U937 (qPCR)", "type": "cell-based, human", "settings": "0.1 and 1 μM psilocin, 4, 10 and 24 h", "description": "as §1, §2, §3"}, "NMDAR1": {"system": "NMDAR1", "assay": "NMDAR1 protein expression in ARPE-19 cells (immunofluorescence)", "type": "cell-based", "description": "(§4) First, the present inventors assessed the expression of three NMDAR subunits (NMDAR1, NMDAR2A, NMDAR2B) and two 5-HT2 subtypes (5-HT2A, 5-HT2C) by immunofluorescence coupled to confocal microscopy. 7,500 cells/well were plated in a 24-well plate on sterile glass coverslips. The next day, the immunofluorescence analysis was performed. The following primary antibodies were used: anti-NMDAR1A (Abcam, ab68144), NMDAR2A (Bioss, bs-3507R-TR), NMDAR2B (Bioss, bs-0222R-TR), 5-HT2A (Bioss, bs-12049R), 5-HT2C (Bioss, 2959R), and the secondary antibody goat anti-rabbit IgG (GeneTex, GTX213110-04). The images of the immunostained cells were acquired by means of a confocal microscope Zeiss LSM 800, using a 63× magnification and can be seen in FIGS. 9A-9E. ImageJ software was used to quantify the intensity of the fluorescent signal.\n(§5) 7,500 cells/well were plated in a 24-well plate on sterile glass coverslips. […] After 6 days an immunofluorescence analysis coupled to confocal microscopy was performed with the primary and secondary antibodies described above."}, "[5]": {"system": "Human corneal epithelial (HCE) cells", "assay": "Cell viability, MTT test, HCE cells", "type": "cell-based", "from_the_text": "(§6) Cell cultures. Human corneal epithelial (HCE) cells were obtained from the American Type Culture Collection. U937 human monocytes cell line was purchased from Thermo Scientific.\n(§7) With this procedure, only viable cells with functioning mitochondria can oxidize MTT to a violet-red reaction product."}, "collagen type I": {"system": "collagen type I", "assay": "Collagen type I expression in keratocytes exposed to CM of activated U937 (qPCR)", "type": "cell-based, human", "settings": "0.1 and 1 μM psilocin, 4, 10 and 24 h", "description": "as §1, §2, §3"}, "5-HT2C": {"system": "5-HT2C", "assay": "5-HT2C receptor expression in ARPE-19 cells (immunofluorescence)", "type": "cell-based", "settings": "chronic treatment with psilocin", "description": "as §4, §5"}, "NMDAR2A": {"system": "NMDAR2A", "assay": "NMDAR2A protein expression in ARPE-19 cells (immunofluorescence)", "type": "cell-based", "description": "as §4, §5"}, "IL-1β": {"system": "IL-1β", "assay": "IL-1β expression in keratocytes exposed to CM of activated U937 (qPCR)", "type": "cell-based, human", "settings": "0.1 and 1 μM psilocin, 4 h", "description": "as §1, §2, §3"}, "NMDAR2B": {"system": "NMDAR2B", "assay": "NMDAR2B protein expression in ARPE-19 cells (immunofluorescence)", "type": "cell-based", "description": "as §4, §5"}, "keratocytes": {"system": "keratocytes", "assay": "Cell viability, MTT test, keratocytes", "type": "cell-based, human", "description": "(§8) Primary corneal keratocytes were obtained after digestion of human corneas from healthy donors purchased at the Veneto Eye Bank Foundation (Venezia Mestre, Italy). After the corneal epithelium was removed with a cell scraper and the endothelium was enzymatically detached using 0.05% trypsin/0.02% EDTA-solution for 15 minutes at 37° C., the stroma was then cut into 3- to 4-mm pieces and treated overnight at 37° C. with type I collagenase (100 U/ml) and hyaluronidase (2 mg/ml) solutions in Dulbecco's Modified Eagle's Medium (DMEM). Isolated keratocytes were then seeded in monolayer and cultured at 37° C. with 5% CO2 in DMEM containing 10% FBS, 1% penicillin-streptomycin (P/S) and 1% L-glutamine (otherwise known as complete medium). Expanded cells were trypsinized and sub-cultured at a ratio of 1:2. Corneal cells were grown under standard cell culture practices in complete DMEM medium at 37° C., in a 5% CO2 atmosphere. U937 human monocytes were grown in suspension in complete RPMI 1640 medium and passaged twice weekly by dilution using a seeding density of 10^6 cells/ml.\nas §7"}, "5-HT2A": {"system": "5-HT2A", "assay": "5-HT2A receptor expression in ARPE-19 cells (immunofluorescence)", "type": "cell-based", "settings": "acute and chronic psilocin exposure; decreasing tendency", "description": "as §4, §5"}, "corneal cells": {"system": "corneal cells", "assay": "Psilocin cytotoxicity in corneal cells", "type": "cell-based, human", "settings": "0.001 to 10 μM, assessed 3 days after treatment", "description": "as §6, §8, §7"}, "[6]": {"settings": "0.05 μM, alternating medium with/without psilocin every 24 hours (96 hours)"}, "[7]": {"settings": "3 and 6 days after treatment, 0.01, 0.1 and 1 μM"}}, "note": "Several values for one entry are separate records, joined by “and”; a condition that tells them apart may be missing. Equal values may be shown once."}
{"smiles": "CCC(=O)C(C[C@H](C)N(C)C)(c1ccccc1)c1ccccc1", "note": "[D methadone, dextromethadone]", "values": [{"measurement": "Avg % Beta Gal+ cells", "setting": "IMR-90; D methadone 10 nM", "result": 79.01, "unit": "%"}, {"measurement": "Total % Beta Gal+ cells", "setting": "IMR-90; D methadone 10 nM", "result": 81.29, "unit": "%"}, {"measurement": "% Beta Gal+ cells, single well/duplicate", "setting": "IMR-90; D methadone 10 nM, UVB without treatment Avg 85.63514", "result": "71.875% and 85.71% and 77.19% and 81.25%"}, {"measurement": "% Beta Gal+ cells, single well/duplicate", "setting": "IMR-90; D methadone 500 nM", "result": "82.86% and 82.35% and 76.47% and 91.67%"}, {"measurement": "Avg % Beta Gal+ cells", "setting": "IMR-90; D methadone 500 nM", "result": 83.34, "unit": "%"}, {"measurement": "Total % Beta Gal+ cells", "setting": "IMR-90; D methadone 500 nM", "result": 83.94, "unit": "%"}, {"measurement": "Affinity of 5-HT-2A receptors", "setting": "5-HT2A receptors", "result": "nanomolar range"}, {"measurement": "Nootropic signal", "setting": "[1]; only the lowest tested dose of 5 mg", "result": "elicited a nootropic signal"}, {"measurement": "MTD", "setting": "[1]; single ascending dose 5-200 mg, nausea and vomiting", "result": 150, "unit": "mg"}, {"measurement": "Plasma BDNF", "setting": "BDNF", "result": "statistically significant increase in plasma BDNF"}]}
{"smiles": "CN(C)CCc1c[nH]c2cccc(O)c12", "note": "[psilocin]", "values": [{"measurement": "IL-12 mRNA expression", "setting": "IL-12", "result": "significant decrease"}, {"measurement": "IL-8 mRNA expression", "setting": "IL-8 [2]", "result": "significant decrease"}, {"measurement": "TNF-α mRNA expression", "setting": "TNF-α", "result": "very low and comparable to that of cells treated only with CM"}, {"measurement": "Psilocin in bile", "setting": "[3]", "result": 3102, "unit": "ng/mL"}, {"measurement": "Psilocin in cardiac blood", "setting": "[3]", "result": 67, "unit": "ng/mL"}, {"measurement": "Psilocin in peripheral blood", "setting": "[3]", "result": 60, "unit": "ng/mL"}, {"measurement": "Psilocin in urine", "setting": "[3]", "result": 2230, "unit": "ng/mL"}, {"measurement": "Psilocin in vitreous humor", "setting": "[3]", "result": 57, "unit": "ng/mL"}, {"measurement": "% Beta Gal+ cells, single well/duplicate", "setting": "IMR-90; Psilocin 5 nM", "result": "86.67% and 75% and 85.71% and 81.82%"}, {"measurement": "Avg % Beta Gal+ cells", "setting": "IMR-90; Psilocin 5 nM", "result": 82.3, "unit": "%"}, {"measurement": "Total % Beta Gal+ cells", "setting": "IMR-90; Psilocin 5 nM", "result": 64.45, "unit": "%"}, {"measurement": "Antisenescence effects", "setting": "IMR-90; higher doses of psilocin (up 24 microM, experiment not shown)", "result": "no antisenescence effects"}, {"measurement": "Antisenescence effects", "setting": "IMR-90; psilocin lower doses (5 nM)", "result": "no antisenescence effects"}, {"measurement": "IL-8 gene expression", "setting": "IL-8 [4]", "result": "significant down-regulation"}, {"measurement": "VEGF I gene expression", "setting": "VEGF", "result": "did not change significantly"}, {"measurement": "NMDAR1 expression", "setting": "NMDAR1; [6]", "result": "increase of NMDAR1 expression"}, {"measurement": "NMDAR1 expression", "setting": "NMDAR1; alternate incubation or psilocin-containing medium replaced every day (FIGS. 11G-11I context)", "result": "increased significantly"}, {"measurement": "NMDAR1 subunit protein expression", "setting": "NMDAR1; psilocin 0.05 μM for 6-days", "result": "dramatic increase"}, {"measurement": "NMDAR1 subunit protein expression", "setting": "NMDAR1; psilocin 10 μM for 24 hours", "result": "slight, not significant increase"}, {"measurement": "Corneal cell viability", "setting": "[5]; [7]", "result": "significant increase in corneal cell viability"}, {"measurement": "Cell viability (MTT)", "setting": "[5]; HCE cells, 0.1 to 1 μM psilocin, up to 6 days", "result": "significant increased viability"}, {"measurement": "Collagen type I gene expression", "setting": "collagen type I", "result": "did not change significantly"}, {"measurement": "Expression of 5-HT2C", "setting": "5-HT2C", "result": "increased after chronic treatment"}, {"measurement": "NMDAR2A subunit protein expression", "setting": "NMDAR2A; psilocin 0.05 μM for 6-days", "result": "dramatic increase"}, {"measurement": "NMDAR2A subunit protein expression", "setting": "NMDAR2A; psilocin 10 μM for 24 hours", "result": "slight, not significant increase"}, {"measurement": "IL-1β mRNA expression", "setting": "IL-1β", "result": "significant decrease"}, {"measurement": "NMDAR2B expression", "setting": "NMDAR2B; [6]", "result": "decrease of NMDAR2B expression"}, {"measurement": "NMDAR2B subunit protein expression", "setting": "NMDAR2B; psilocin 0.05 μM for 6-days", "result": "did not change"}, {"measurement": "NMDAR2B subunit protein expression", "setting": "NMDAR2B; psilocin 10 μM for 24 hours", "result": "did not change"}, {"measurement": "Corneal cell viability", "setting": "keratocytes; [7]", "result": "significant increase in corneal cell viability"}, {"measurement": "Cell viability (MTT)", "setting": "keratocytes; keratocytes, 0.1 to 1 μM psilocin, up to 6 days", "result": "significant increased viability"}, {"measurement": "Expression of 5-HT2A receptor", "setting": "5-HT2A", "result": "virtually no effect"}, {"measurement": "Cytotoxic effect in vitro", "setting": "corneal cells", "result": "does not have a cytotoxic effect"}]}
